The target of series [1] is human MRGPRX1 receptor (Homo sapiens, UniProt Q96LB2). Nature of the series: DiscoverX calcium mobilization cell culture assay, agonist mode (FLIPR Tetra). The format is cell-based. The conditions noted are these: Table 2 initial screening data, agonist format, peptides. As to the method: DiscoverX® Calcium cell line overexpressing naturally Gq coupled, wildtype human MRGPRX1 receptor was used to detect calcium mobilization in response to agonist stimulation of the receptor. Cells were plated in a 384-well plate and incubated overnight at 37° C. and 5% CO2 to allow the cells to attach and grow. Culture media was removed and replaced with dye loading buffer from the Calcium No WashPLUS detection kit according to the recommended protocol. Cells were incubated with peptides to induce response and calcium mobilization was detected using a FLIPR® Tetra (Molecular Devices, Inc.).
Compound activity was analyzed using Chemical and Biological Information System (CBIS) data analysis suite (ChemInnovation, CA). For agonist mode assays, percentage activity is calculated using the following formula: % Activity=100%×(mean RFU of test sample−mean RFU of vehicle control)/(mean MAX RFU control ligand−mean RFU of vehicle control). […] RFU means relative fluorescence units.

Series [2] deals with mechanical allodynia. Conditions: mouse, chronic constriction injury, intrathecal; cited from earlier work.
Series [3] deals with mechanical allodynia. The conditions noted are these: rat, spinal nerve ligation, intrathecal; cited from earlier work.

Where two headings read alike, the source gives them in different places. Non-standard residues stand in square brackets, D forms with d. Residues, ends and D or L forms follow the SMILES beside them. No end group written: not given here. Nle = CCCC[C@H](N)C(=O)O

Chain of human MRGPRX1 receptor (Q96LB2 whole entry): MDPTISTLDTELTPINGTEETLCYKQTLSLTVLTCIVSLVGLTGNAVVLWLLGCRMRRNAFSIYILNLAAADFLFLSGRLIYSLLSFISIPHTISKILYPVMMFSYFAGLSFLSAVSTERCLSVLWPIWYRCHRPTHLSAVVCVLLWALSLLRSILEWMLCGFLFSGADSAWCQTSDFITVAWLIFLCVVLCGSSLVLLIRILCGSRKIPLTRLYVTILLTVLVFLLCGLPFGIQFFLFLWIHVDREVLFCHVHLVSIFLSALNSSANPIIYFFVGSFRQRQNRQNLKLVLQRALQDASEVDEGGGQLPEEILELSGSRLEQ

The term EC50 denotes the concentration that produces a half-maximal response. Regarding `CCCC[C@H](NC(=O)[C@H](Cc1c[nH]c2ccccc12)NC(=O)[C@H](Cc1c[nH]c2ccccc12)NC(=O)[C@H](CCC(=O)O)NC(=O)[C@@H]1CCCN1C(=O)[C@H](CCCNC(=N)N)NC(=O)CNC(=O)[C@@H](N)C(C)C)C(=O)N[C@@H](CC(=O)O)C(=O)N[C@@H](Cc1ccc(O)cc1)C(=O)N[C@@H](CCC(N)=O)C(=O)N[C@@H](CCCCN)C(=O)N[C@@H](CCCNC(=N)N)C(=O)N[C@@H](Cc1ccc(O)cc1)C(=O)NCC(=O)O` [OK-205, VGRPEWW-Nle-DYQKRYG (SEQ ID NO: 22)] (H-VGRPEWW[Nle]DYQKRYG-OH; N-terminus and C-terminus assumed), the EC50 in series [1] was 11.1 nM. `CSCC[C@H](NC(=O)[C@H](Cc1c[nH]c2ccccc12)NC(=O)[C@H](Cc1c[nH]c2ccccc12)NC(=O)[C@H](CCC(=O)O)NC(=O)[C@@H]1CCCN1C(=O)[C@H](CCCNC(=N)N)NC(=O)CNC(=O)[C@H](N)C(C)C)C(=O)N[C@@H](CC(=O)O)C(=O)N[C@@H](Cc1ccc(O)cc1)C(=O)N[C@@H](CCC(N)=O)C(=O)N[C@@H](CCCCN)C(=O)N[C@@H](CCCNC(=N)N)C(=O)N[C@@H](Cc1ccc(O)cc1)C(=O)NCC(=O)O` [OK-206, dV-GRPEWWMDYQKRY-dG (SEQ ID NO: 23)] (H-[dV]GRPEWWMDYQKRYG-OH; N-terminus and C-terminus assumed): in series [1], the EC50 was found to be 1.02 nM. Still for that read-out and setting: next, “GRPEWWMDYQKRY [OK-203, GRPEWWMDYQKRY (SEQ ID NO: 3)]”: 0.67 nM. Same read-out and setting: then “VGRPEWWMDSQKRYG [OK-202, VGRPEWWMDSQKRYG (SEQ ID NO: 54)]”, with 1580 nM.

Consider “VGRPEWWMDYQKRYG [BAM-8-22, VGRPEWWMDYQKRYG (SEQ ID NO: 21)]”, for which, in series [2], the baseline nociception result was “did not affect baseline nociception” and the mechanical allodynia result is recorded as “attenuates mechanical allodynia”. Moreover, in series [1], the EC50 was 1.33 nM. In addition, in series [3], the baseline nociception entry is “did not affect baseline nociception” and the mechanical allodynia result was “attenuates mechanical allodynia”.

Values taken from patent publication US20220281915A1, “COMPOSITIONS COMPRISING BOVINE ADRENAL MEDULLA 8-22 (BAM8-22) PEPTIDE ANALOGS AND METHODS OF USE” (OKYO Pharma Limited, priority 2019, published 2022).
